In patent US11233200B2, “Condensed cyclic compound, composition including the same, and organic light-emitting device including the condensed cyclic compound” (Samsung Electronics Co., Ltd., priority 2018, dated 2022):

Key:
[1] = Measurement of triplet energy level; type: physicochemical; conditions: spin-coated film of about 50 nm from 3 weight % toluene solution; PL spectrum at 77 K, peak of shortest wavelength
Method: Compound 1 was dissolved in toluene to a concentration of 3 weight % to prepare a solution. The same applied to Compounds 3 and C1 to prepare solutions. The solutions were spin-coated at a rotational speed of 1,600 revolutions per minute (rpm) and dried on a hot plate at a temperature of 120° C. for 15 minutes to obtain films (samples) having a thickness (film thickness after dry) of about 50 nanometers (nm). The samples were cooled to a temperature of 77 Kelvins (K) (−196° C.) and photoluminescence (PL) spectrums were obtained. The triplet energy levels (electron volts, eV) were calculated at the peak values of the shortest wavelengths of the PL spectrums.

[2] = Measurement of solubility; type: physicochemical; conditions: methyl benzoate (solvent), room temperature, ultrasonic waves
Method: 50 milligrams (mg) of Compound 1 and 500 mg of methyl benzoate (solvent) were added to a colorless sample bottle, ultrasonic waves were irradiated thereon at room temperature for 5 minutes, and the presence or absence of Compound 1 was visually confirmed. […] When Compound 1 remains, a small amount of a solvent was added thereto, the irradiation of ultrasonic waves was repeated, and an amount of the solvent was measured until Compound 1 was completely dissolved. The solubility was measured from the amount of the solvent finally used. The solubility values of Compounds 3 and C1 were calculated in the same manner.

Row | Triplet energy level [1] [eV] | Solubility [2] [weight %] | Compound
1 | 2.81 | 2 | c1ccc(-c2cccc(-c3cccc(-c4ccc5c(c4)C4(c6ccccc6-5)c5ccccc5-c5ccc(-c6cccc(-c7cccc(-c8ccccc8)c7)c6)cc54)c3)c2)cc1 [Compound C1]
2 | 2.91 | <1 | c1ccc(-c2nc(-c3ccccc3)nc(-c3cccc(-c4cccc(-c5cccc6c5-c5ccccc5C65c6ccccc6-c6c(-c7ccccc7)cccc65)c4)c3)n2)cc1 (centres unmarked) [Compound C2]
3 | 2.96 | 9 | c1ccc(-c2cc(-c3ccccc3)cc(-c3cccc(-c4cccc5c4-c4ccccc4C54c5ccccc5-c5c(-c6cccc(-c7cc(-c8ccccc8)cc(-c8ccccc8)c7)c6)cccc54)c3)c2)cc1 [Compound 3]
4 | 2.96 | 7 | c1ccc(-c2cccc(-c3cccc(-c4cccc5c4-c4ccccc4C54c5ccccc5-c5c(-c6cccc(-c7cccc(-c8ccccc8)c7)c6)cccc54)c3)c2)cc1 [Compound 1]
